From paper PMC4911353, “Pharmacologic Inhibition of Host Phosphodiesterase-4 Improves Isoniazid-Mediated Clearance of Mycobacterium tuberculosis” (Frontiers in Immunology, 2016) come the findings set out here.

The subject of one assay is lung granulomas. The experiment in a line: Histology and morphometric measurement of lung granulomas in Mtb-infected mice. It counts as in vivo. As to conditions: 28 days postinfection (14 days of treatment), histology. On the procedure: Formalin-fixed lung tissues of Mtb-infected mice were paraffin-embedded, cut into […] sections, and stained with hematoxylin and eosin (H&E) or acid fast staining by Ziehl–Neelsen (ZN) method to visualize host cells and Mtb, respectively (IDEXX-RADIL Laboratories Inc., MO, USA) as described in Ref. ([11]). Stained sections were photographed in a Nikon Microphot-FX photomicrographic system and analyzed with NIS-Elements F3.0 software (Nikon Instruments Inc., NY, USA). Lung granuloma size was morphometrically measured using PathScan Enabler IV scanner (Meyer Instruments, Houston, TX, USA) and SigmaScan Pro software (Systat Software, Inc., CA, USA). Histopathologic analysis and morphometry were performed by an experienced pathologist blinded to the sample identity.

The next assay has as its system Pde4. The assay is described as follows: qPCR of host Pde4 gene expression in Mtb-infected mouse lungs. The note with it: 14 days of treatment (28 days postinfection). It counts as in vivo, mice. As to the method: Total lung RNA (200 ng) was reverse-transcribed using Sprint RT kit (Clontech, CA, USA); 10 ng of cDNA were used for quantitative real-time PCR (qPCR), with Brilliant II SYBR master mix (Agilent Technologies, CA, USA) and gene-specific primers in a Stratagene Mx3005P instrument (Agilent Technologies, CA, USA). ROX was included in each reaction as an internal control. The qPCR assay was performed using four mouse samples in duplicate per group; the data were analyzed using MxPro Software (Agilent Technologies, CA, USA). Transcript levels of Gapdh were used as a reference against the test genes. Fold change in gene expression was calculated using the formula 2^−ΔΔCt, where ΔCt is the difference in threshold cycle (Ct) between the target gene and Gapdh; and ΔΔCt is the […] between untreated and CC-11050-treated samples. Primers were designed based on nucleotide sequences obtained from PrimerBank.^3

Take `CCOc1cc([C@@H](CS(C)(=O)=O)N2Cc3cccc(NC(=O)C4CC4)c3C2=O)ccc1OC` [CC-11050, N-[2-[(1S)-1-(3-ethoxy-4-methoxyphenyl)-2-(methylsulfonyl)ethyl]-2,3-dihydro-3-oxo-1H-isoindol-4-yl]-(9Cl) cyclopropanecarboxamide]: the “Impact on size and structure of lung lesions” value with lung granulomas is “no significant impact”. Moreover, in the assay on Pde4, the “Pde4A expression in lungs versus Mtb-infected untreated” value was “No significant change” and the “Pde4C expression in lungs versus Mtb-infected untreated” value was “No significant change”. Moreover, the “Pde4D expression in lungs versus Mtb-infected untreated” value in the assay on Pde4 (50 mg/kg, P = 0.0037) was “significantly reduced”. In addition, the “Pde4Bi3 (Pde4B isoform 3) expression in lungs versus Mtb-infected untreated” value in the assay on Pde4 (50 mg/kg, P = 0.015) is given as “significantly reduced”.
